This note sets out measurements from US5393729A, “3-aryl-pyrone derivatives” (Bayer Aktiengesellschaft, priority 1992, dated 1995).

Like-named read-outs stand apart in the source and are kept apart here.

One experiment has as its system Nippostrongylus. Description: Nippostrongylus in vitro (acetylcholine esterase determination). More on the design: species or system Nippostrongylus brasiliensis. The following applies: read-out: inhibition of the enzyme (full activity). Here is the method:
Nippostrongylus are isolated from the small intestine of rats and washed with 0.9% of NaCl supplemented with 29 μg/ml sisomycin and 2 μg/ml of clotrimazole. The actual incubation of in each case 5 male and female Nippostrongylus is carried out in 1.0 ml of medium used for determining the activity of acetylcholine esterase. Enzyme determination is by the method of Rapson et al., 1987 (E. B. Rapson, D. C. Jenkins, A. S. Chilwan), Improved detection of anthelmintic activity in vitro screen utilizing adult Nippostrongylus brasiliensis. Parasitol. Res. 1987 73, 190 to 191.
The following key is used for the assessment: 3=full activity, 100% inhibition of the enzyme; 2=good activity, more than 75% inhibition; 1=poor activity, less than 50% inhibition.

Experiment [1] has as its system larvae of the green rice cicada (Nephotettix cincticeps). Description: whole plant or invertebrate. The format is in vivo. The following applies: 144 h, read-out: destruction of cicadas. Here is the method:
(§1) Solvent: 7 parts by weight of dimethylformamide
(§2) Emulsifier: 1 part by weight of alkylaryl polyglycol ether
(§3) To produce a suitable preparation of active compound, 1 part by weight of active compound is mixed with the stated amount of solvent and the stated amount of emulsifier, and the concentrate is diluted with water to the desired concentration.
Rice seedlings (Oryza satira) are treated by being dipped into the preparation of active compound of the desired concentration and are infested with larvae of the green rice cicada (Nephotettix cincticeps) while the seedlings are still moist.
After the specified period of time, the destruction in % is determined. 100% means that all the cicadas have been killed; 0% means that none of the cicadas have been killed.

Experiment [2] deals with common spider mite or greenhouse red spider mite (Tetranychus urticae). Kind of experiment: Tetranychus test (OP resistant). The format is in vivo. The following applies: 168 h, read-out: destruction of spider mites. As for the experimental part:
Tetranychus test (OP resistant)
as §1, §2, §3
Bean plants (Phaseolus vulgaris) which are heavily infested with all development stages of the common spider mite or greenhouse red spider mite (Tetranychus urticae) are treated by being dipped into the preparation of active compound of the desired concentration.
After the specified period of time, the destruction in % is determined. 100% means that all the spider mites have been killed; 0% means that none of the spider mites have been killed.

The test system of a further experiment is Digitaria. Description: Pre-emergence test, Digitaria. In kind it is in vivo. The following applies: 504 h, after three weeks, 0%=no action, 100%=total destruction, read-out: % Activity (damage to the plants). Here is the method:
(§4) Solvent: 5 parts by weight of acetone
as §2
(§5) To produce a suitable preparation of active compound, 1 part by weight of active compound is mixed with the stated amount of solvent, the stated amount of emulsifier is added and the concentrate is diluted with water to the desired concentration.
(§6) Seeds of the test plants are sown in normal soil and, after 24 hours, watered with the preparation of the active compound. It is expedient to keep constant the amount of water per unit area. The concentration of the active compound in the preparation is of no importance, only the amount of active compound applied per unit area being decisive. After three weeks, the degree of damage to the plants is rated in % damage in comparison to the development of the untreated control. The figures denote:
(§7) 0%=no action (like untreated control)
(§8) In this test, the following results were obtained at an exemplary application rate of 500 g/ha, the active compounds being tolerated well to very well by soya beans: […]

The test system of a further experiment is Setaria. Kind of experiment: Pre-emergence test, Setaria. The format is in vivo. The following applies: 504 h, after three weeks, 0%=no action, 100%=total destruction, read-out: % Activity (damage to the plants). Here is the method: as §4, §2, §5, §6, §7, §8
In a further experiment the test system is Panicum. Description: Pre-emergence test, Panicum. In kind it is in vivo. The following applies: 504 h, after three weeks, 0%=no action, 100%=total destruction, read-out: % Activity (damage to the plants). Here is the method:
as §4, §2, §5, §6, §7, §8

Another experiment relates to Echinochloa. Description: Pre-emergence test, Echinochloa. The format is in vivo. The following applies: 504 h, after three weeks, 0%=no action, 100%=total destruction, read-out: % Activity (damage to the plants). Here is the method: as §4, §2, §5, §6, §7, §8
Experiment [3] has as its system black bean aphid (Aphis fabae). Kind of experiment: whole plant or invertebrate. In kind it is in vivo. The following applies: active compound concentration 0.1%, bean plants watered, systemic action, read-out: destruction of aphids. Here is the method: Aphis test (systemic action)
as §1, §2, §3
Bean plants (Vicia faba) which are heavily infested with the black bean aphid (Aphis fabae) are each watered with 20 ml of the preparation of the active compound of the desired concentration in such a way that the preparation of active compound penetrates the soil without wetting the shoot. The active compound is taken up by the roots and translocated to the shoot.
After the specified period of time, the destruction in % is determined. 100% means that all the aphids have been killed; 0% means that none of the aphids have been killed.

In experiment [4] the test system is Lucilia cuprina resistant larvae. Kind of experiment: Test with Lucilia cuprina resistant larvae. In kind it is in vivo. The following applies: after 24 hours, read-out: degree of destruction. Here is the method:
Test with Lucilia cuprina resistant larvae
Emulsifier: 35 parts by weight of ethylene glycolmonomethyl ether 35 parts by weight of nonylphenol polyglycol ether
To produce a suitable preparation of active compound, three parts by weight of active compound are mixed with seven parts by weight of the abovementioned mixture and the concentrate thus obtained is diluted with water to the particular desired concentration.
About 20 Lucilia cuprina res. larvae are introduced into a test tube which contains approx. 1 cm^3 of horse meat and 0.5 ml of the preparation of active compound. After 24 hours, the degree of destruction is determined.

Experiment [5] relates to caterpillars of the diamond-back moth (Plutella maculipennis). Description: whole plant or invertebrate. The following applies: in Brassica oleracea, 168 h, read-out: destruction of caterpillars. In kind it is in vivo. Here is the method: as §1, §2, §3
Cabbage leaves (Brassica oleracea) are treated by being dipped into the preparation of active compound of the desired concentration and are infested with caterpillars of the diamond-back moth (Plutella maculipennis) while the leaves are still moist.
After the specified periods of time, the destruction in % is determined. 100% means that all the caterpillars have been killed; 0% means that none of the caterpillars have been killed.

Experiment [6] concerns mustard beetle larvae (Phaedon cochleariae). Description: Phaedon larvae test. In kind it is in vivo. The following applies: 168 h, after 7 days, active compound concentration 0.1%, cabbage leaves dipped, read-out: destruction of beetle larvae. As for the experimental part: as §1, §2, §3
After the specified periods of time, the destruction in % is determined. 100% means that all the beetle larvae have been killed; 0% means that none of the beetle larvae have been killed.

Setting [7] is: after 7 days, active compound concentration 0.01%, OP resistant, bean plants dipped.

On to `CCOC(=O)c1c(C)oc(=O)c(-c2c(C)cc(C)cc2C)c1O` [Example 1], for which, in the experiment on Nippostrongylus, the inhibition – broadly, the percentage by which the read-out fell short of the control – at 100 ppm was 100%.
Consider `CCOC(=O)Oc1cc(C(C)(C)C)oc(=O)c1-c1c(C)cc(C)cc1C` [Example 3, 4-ethoxycarbonyloxy-6-tert.-butyl-3-(2,4,6-trimethylphenyl)pyrone], for which the mortality at 0.1 % in [1] was found to be 100%. The mortality at 0.01 % in experiment [2] was 100%.
Regarding `Cc1cc(C)c(-c2c(O)cc(C(C)(C)C)oc2=O)c(C)c1` [Example 31], the activity at 500 g/ha in the experiment with Digitaria is 90 to 100%; in the experiment with Setaria, 70 to 100%; in the experiment on Panicum it was 95 to 100%; with Echinochloa it was 70 to 100%. For the same molecule, the mortality at 0.1 % in [1] came to 100%. The mortality at 0.01 % in experiment [2] (setting [7]) was 100%.
`Cc1cc(C)c(-c2c(O)c(C)c(C)oc2=O)c(C)c1` [Example 32]: the mortality at 0.1 % in [3] and in [1] was 100% in each case. The mortality at 1000 ppm in [4] stood at 100%. The activity at 500 g/ha with Digitaria lay within 90 to 100%; in the experiment with Setaria, 70 to 100%; with Panicum, 95 to 100%; in the experiment on Echinochloa it was 70 to 100%.
Regarding `Cc1cc(C)c(-c2c(O)cc(-c3ccccc3)oc2=O)c(C)c1` [Example 46], in experiment [4], the mortality at 1000 ppm was 100%. Besides, the activity at 500 g/ha in the experiment with Digitaria is 90 to 100%; with Panicum, 95 to 100%; with Echinochloa it was 70 to 100%. Moreover, the mortality at 0.1 % in [5] and in experiment [6] was 100% throughout.
`Cc1cc(C)c(-c2c(O)cc(-c3ccccc3Cl)oc2=O)c(C)c1` [Example 47]: the mortality at 0.1 % in [6] turned out to be 100%.
As for `Cc1cc(C)c(-c2c(O)cc(-c3ccc(F)cc3)oc2=O)c(C)c1` [Example 52], the activity at 500 g/ha was 90 to 100% with Digitaria, 70 to 100% in the experiment on Setaria, 95 to 100% in the experiment on Panicum and 70 to 100% in the experiment with Echinochloa. Also, the mortality at 0.1 % in [5] and in experiment [1] was 100% throughout.
In the case of `Cc1cc(C)c(-c2c(O)cc(-c3ccc(Cl)cc3)oc2=O)c(C)c1` [Example 53], the activity at 500 g/ha in the experiment on Digitaria lay in the range of 90 to 100%; with Setaria, 70 to 100%; with Panicum it was 95 to 100%; in the experiment with Echinochloa it was 70 to 100%. The mortality at 0.1 % in experiment [5] turned out to be 100%.
Regarding `Cc1cc(C)c(-c2c(O)cc(-c3ccc(Cl)s3)oc2=O)c(C)c1` [Example 61], the mortality at 0.1 % in [5] came to 100%.
Turning to `Cc1cc(C)c(-c2c(O)cc(-c3c(C)cc(C)nc3C)oc2=O)c(C)c1` [Example 65], the mortality at 0.1 % in [1] and in experiment [6] was 100% in each case.
On to `CC(=O)Oc1c(C)c(C)oc(=O)c1-c1c(C)cc(C)cc1C` [Example 81], for which the activity at 500 g/ha lay within 90 to 100% in the experiment on Digitaria, 70 to 100% in the experiment with Setaria, 95 to 100% with Panicum and 70 to 100% in the experiment on Echinochloa. Besides, the mortality at 0.1 % in experiment [5] turned out to be 100%.
On to `CC(=O)Oc1cc(C(C)(C)C)oc(=O)c1-c1c(C)cc(C)cc1C` [Example 84], for which the activity at 500 g/ha in the experiment on Digitaria is 90 to 100%; in the experiment on Setaria, 70 to 100%; in the experiment on Panicum, 95 to 100%; with Echinochloa, 70 to 100%. Also, the mortality at 0.1 % in [1] turned out to be 100%. Besides, the mortality at 0.01 % in experiment [2] (setting [7]) amounted to 100%.
As to `Cc1cc(C)c(-c2c(OC(=O)C(C)C)cc(C(C)(C)C)oc2=O)c(C)c1` [Example 85], the mortality at 0.1 % in experiment [1] stood at 100%. Also, in experiment [2] (setting [7]), the mortality at 0.01 % is 100%.
`CCOC(=O)Oc1c(C)c(C)oc(=O)c1-c1c(C)cc(C)cc1C` [Example 88]: the activity at 500 g/ha in the experiment with Digitaria is 90 to 100%; in the experiment on Setaria, 70 to 100%; in the experiment on Panicum, 95 to 100%. For the same molecule, in experiment [5], the mortality at 0.1 % was found to be 100%. In addition, the mortality at 0.01 % in experiment [2] (setting [7]) was 100%.
